In US11623922B2, “Compounds” (INFLAZOME LIMITED, priority 2017, dated 2023):

Assays:
NLRP3 [1] = biological target: T1, NLRP3 (Homo sapiens, UniProt Q96P20); experiment: THP-1 cells pyroptosis assay; type: cell-based; design: Seed THP-1 cells (25,000 cells/well) containing 1.0 μg/ml LPS in 40 μl of RPMI medium; host or cells: THP-1 cells; details: NLRP3 inhibitory activity, 1.0 μg/ml LPS, nigericin 5 μM, resazurin readout
Experimental: The cells were routinely passaged and grown to confluency (˜10^6 cells/ml). On the day of the experiment, THP-1 cells were harvested and resuspended into RPMI medium (without FBS). The cells were then counted and viability (>90%) checked by Trypan blue (Sigma #T8154). […] To this diluted cell solution was added LPS (Sigma #L4524) to give a 1 μg/ml Final Assay Concentration (FAC). 40 μl of the final preparation was aliquoted into each well of a 96-well plate. The plate thus prepared was used for compound screening.
The following method step-by-step assay was followed for compound screening. • 1. […] Incubate for 3 hrs at 37° C. in 5% CO2 • 4. Add 5 μl nigericin (Sigma #N7143) (FAC 5 μM) to all wells • 5. Incubate for 1 hr at 37° C. and 5% CO2 • 6. At the end of the incubation period, spin plates at 300×g for 3 mins and remove supernatant • 7. Then add 50 μl of resazurin (Sigma #R7017) (FAC 100 μM resazurin in RPMI medium without FBS) and incubate plates for a further 1-2 hrs at 37° C. and 5% CO2 • 8. […] IC50 data is fitted to a non-linear regression equation (log inhibitor vs response-variable slope 4-parameters)

NLRP3 [2] = biological target: T1, NLRP3; experiment: Human whole blood IL1β release assay; type: cell-based; design: Plate out 80 μl of whole blood containing 1 μg/ml of LPS in 96-well, clear bottom cell culture plate; from tissue; host or cells: human whole blood from healthy donors; details: NLRP3 inhibitory activity, 1 μg/ml LPS, nigericin 10 μM, IL-1β by AlphaLisa, read-out: HWB IC50
Experimental: For systemic delivery, the ability to inhibit NLRP3 when the compounds are present within the bloodstream is of great importance. For this reason, the NLRP3 inhibitory activity of a number of compounds in human whole blood was investigated in accordance with the following protocol.
Human whole blood in Li-heparin tubes was obtained from healthy donors from a volunteer donor panel. • 1. […] Incubate for 3 hrs at 37° C., 5% CO2 • 4. Add 10 μl nigericin (Sigma #N7143) (10 μM FAC) to all wells • 5. Incubate for 1 hr at 37° C., 5% CO2 • 6. At the end of the incubation period, spin plates at 300×g for 5 mins to pellet cells and remove 20 μl of supernatant and add to 96-well v-bottom plates for IL-1β analysis (note: these plates containing the supernatants can be stored at −80° C. to be analysed at a later date) • 7. IL-1β was measured according to the manufacturer protocol (Perkin Elmer-AlphaLisa IL-1 Kit AL220F-5000) • 8. IC50 data is fitted to a non-linear regression equation (log inhibitor vs response-variable slope 4-parameters)

[3] = PK protocol, intravenous administration in rats; type: in vivo; details: rat, 1 mg/kg, male Sprague Dawley rats, plasma; for Vd: read-out: Vdss
Experimental: Pharmacokinetic parameters were determined in male Sprague Dawley rats (Vital River Laboratory Animal Technology Co Ltd, Beijing, China, 7-9 weeks old). Animals were individually housed during the study and maintained under a 12 h light/dark cycle. Animals had free access to food and water.
For intravenous administration, compounds were formulated as a solution in DMSO:PBS [10:90] in 2 mL/kg dosing volume and administered via tail vein.
Serial blood samples (about 200 μL) were taken from each animal at each of 8 time-points post dose (0.083, 0.25, 0.5, 1, 2, 4, 8 and 24 h). Samples were held on ice for no longer than 30 minutes before centrifugation (5,696 rpm (3,000 g) for 15 minutes) for plasma generation. Plasma was frozen on dry ice prior to bioanalysis. PK parameters were generated from LC-MS/MS data using Phoenix WinNonlin 6.3 software.

T1 sequence (Q96P20 whole entry): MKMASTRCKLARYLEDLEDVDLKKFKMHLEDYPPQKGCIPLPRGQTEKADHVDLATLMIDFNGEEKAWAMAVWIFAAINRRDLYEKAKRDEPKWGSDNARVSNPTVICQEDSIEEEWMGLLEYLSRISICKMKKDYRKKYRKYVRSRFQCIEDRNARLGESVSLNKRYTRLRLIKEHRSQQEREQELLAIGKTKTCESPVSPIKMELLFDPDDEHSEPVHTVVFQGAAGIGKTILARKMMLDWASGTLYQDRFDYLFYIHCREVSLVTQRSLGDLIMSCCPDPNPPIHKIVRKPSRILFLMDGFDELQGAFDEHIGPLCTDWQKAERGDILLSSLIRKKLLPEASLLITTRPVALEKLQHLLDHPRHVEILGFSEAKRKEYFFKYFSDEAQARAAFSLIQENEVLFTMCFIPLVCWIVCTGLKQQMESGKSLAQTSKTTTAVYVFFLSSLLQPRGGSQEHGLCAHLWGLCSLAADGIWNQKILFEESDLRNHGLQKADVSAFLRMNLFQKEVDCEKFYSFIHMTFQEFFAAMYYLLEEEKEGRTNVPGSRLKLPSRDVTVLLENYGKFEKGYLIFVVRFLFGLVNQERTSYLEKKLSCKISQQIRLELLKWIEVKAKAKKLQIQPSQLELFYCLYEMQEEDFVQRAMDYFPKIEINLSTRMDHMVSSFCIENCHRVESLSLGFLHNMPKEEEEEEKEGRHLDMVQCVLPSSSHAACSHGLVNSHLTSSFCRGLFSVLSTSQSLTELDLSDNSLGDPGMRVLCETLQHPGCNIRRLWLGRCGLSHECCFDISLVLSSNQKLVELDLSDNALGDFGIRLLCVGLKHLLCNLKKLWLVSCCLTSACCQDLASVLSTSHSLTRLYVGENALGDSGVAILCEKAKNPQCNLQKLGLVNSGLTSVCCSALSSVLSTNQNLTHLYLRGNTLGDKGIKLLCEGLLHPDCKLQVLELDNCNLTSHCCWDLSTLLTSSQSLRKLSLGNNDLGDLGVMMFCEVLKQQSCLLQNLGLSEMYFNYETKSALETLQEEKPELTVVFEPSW

Compound	IC50 (NLRP3 [1]) [nM]	IC50 (NLRP3 [2]) [nM]	AUC [3] [ng·h/mL]	clearance [3] [mL/min/kg]	half-life [3] [h]	Vd [3] [L/kg]
COc1cc(-c2cc(F)cc(C(C)C)c2NC(=O)NS(=N)(=O)c2nn(C(C)C)cc2Cl)ccn1 (centres unmarked) [Example 13, 4-Chloro-N-((4-fluoro-2-isopropyl-6-(2-methoxypyridin-4-yl)phenyl)carbamoyl)-1-isopropyl-1H-pyrazole-3-sulfonimidamide]	< 100	< 1000				
CC(c1cc(S(=N)(=O)NC(=O)Nc2c3c(cc4c2CCC4)CCC3)nn1C)N1CCC1 (centres unmarked) [Example 22, 5-(1-(Azetidin-1-yl)ethyl)-N-((1,2,3,5,6,7-hexahydro-s-indacen-4-yl)carbamoyl)-1-methyl-1H-pyrazole-3-sulfonimidamide]	< 100	< 500				
CC(C)n1cc(Cl)c(S(=N)(=O)NC(=O)Nc2c(-c3ccncc3)cc(F)c3c2CCC3)n1 (centres unmarked) [Example 26, 4-Chloro-N-((7-fluoro-5-(pyridin-4-yl)-2,3-dihydro-1H-inden-4-yl)carbamoyl)-1-isopropyl-1H-pyrazole-3-sulfonimidamide]	< 100	< 500				
C[C@@H](O)Cn1ccc(S(=N)(=O)NC(=O)Nc2c(-c3ccncc3)cc(F)c3c2CCC3)n1 (stereo partly drawn) [Example 25, N-((7-Fluoro-5-(pyridin-4-yl)-2,3-dihydro-1H-inden-4-yl)carbamoyl)-1-((R)-2-hydroxypropyl)-1H-pyrazole-3-sulfonimidamide]	< 100	< 500				
COc1cc(-c2cc(F)cc(C(C)C)c2NC(=O)NS(=N)(=O)c2ccn(C(C)C)n2)ccn1 (centres unmarked) [Example 16, N-((4-Fluoro-2-isopropyl-6-(2-methoxypyridin-4-yl)phenyl)carbamoyl)-1-isopropyl-1H-pyrazole-3-sulfonimidamide]	< 100	< 1000				
CC(C)n1cc(Cl)c(S(=N)(=O)NC(=O)Nc2c3c(cc4c2CCC4)CCC3)n1 (centres unmarked) [Example 2, 4-Chloro-N-((1,2,3,5,6,7-hexahydro-s-indacen-4-yl)carbamoyl)-1-iso-propyl-1H-pyrazole-3-sulfonimidamide]	< 100	< 5000				
CC(C)c1cc(F)cc(-c2ccnc(C#N)c2)c1NC(=O)NS(=N)(=O)c1ccn(C(C)C)n1 (centres unmarked) [Example 15, N-((2-(2-Cyanopyridin-4-yl)-4-fluoro-6-isopropylphenyl)carbamoyl)-1-isopropyl-1H-pyrazole-3-sulfonimidamide]	< 1000	< 1000				
COc1cc(-c2ccc3c(c2NC(=O)NS(=N)(=O)c2ccn(C(C)C)n2)CCC3)ccn1 (racemic) [Example 14, 1-Isopropyl-N-((5-(2-methoxypyridin-4-yl)-2,3-dihydro-1H-inden-4-yl)carbamoyl)-1H-pyrazole-3-sulfonimidamide]	< 100	< 500	1740	9.6	0.9	0.34
CCN(CC)CCCS(=N)(=O)NC(=O)Nc1c2c(cc3c1CCC3)CCC2 (centres unmarked) [Example 6, 3-(Diethylamino)-N-((1,2,3,5,6,7-hexahydro-s-indacen-4-yl)carbamoyl) propane-1-sulfonimidamide]	< 10000					
CC(C)n1ccc(S(=N)(=O)NC(=O)Nc2c(-c3ccncc3)cc(F)c3c2CCC3)n1 (centres unmarked) [Example 24, N-((7-Fluoro-5-(pyridin-4-yl)-2,3-dihydro-1H-inden-4-yl)carbamoyl)-1-isopropyl-1H-pyrazole-3-sulfonimidamide]	< 100	< 500				
COc1cc(-c2ccc3c(c2NC(=O)NS(=N)(=O)c2nn(C(C)C)cc2Cl)CCC3)ccn1 (centres unmarked) [Example 11, 4-Chloro-1-isopropyl-N-((5-(2-methoxypyridin-4-yl)-2,3-dihydro-1H-inden-4-yl)carbamoyl)-1H-pyrazole-3-sulfonimidamide]	< 100	< 1000	2720	6.1	1	0.45
CN(C)CCn1ccc(S(=N)(=O)NC(=O)Nc2c3c(cc4c2CCC4)CCC3)n1 (centres unmarked) [Example 10, 1-(2-(Dimethylamino)ethyl)-N-((1,2,3,5,6,7-hexahydro-s-indacen-4-yl)carbamoyl)-1H-pyrazole-3-sulfonimidamide]	< 500	< 500				
COc1cc(-c2cc(F)cc(C(C)C)c2NC(=O)NS(=N)(=O)c2ccn(C[C@@H](C)O)n2)ccn1 (stereo partly drawn) [Example 19, N-((4-Fluoro-2-isopropyl-6-(2-methoxypyridin-4-yl)phenyl)carbamoyl)-1-((R)-2-hydroxypropyl)-1H-pyrazole-3-sulfonimidamide]	< 100	< 1000				
N-((2-(2-Cyanopyridin-4-yl)-4-fluoro-6-isopropylphenyl)carbamoyl)-1-((R)-2-hydroxypropyl)-1H-pyrazole-3-sulfonimidamide [Example 18]	< 500	< 500				
COc1cc(-c2ccc3c(c2NC(=O)N[S@@](=N)(=O)c2ccn(C(C)C)n2)CCC3)ccn1 [Example 27, (R)-1-Isopropyl-N-((5-(2-methoxypyridin-4-yl)-2,3-dihydro-1H-inden-4-yl)carbamoyl)-1H-pyrazole-3-sulfonimidamide]	< 100	< 500				
CC(C)c1cc(F)cc(-c2ccnc(C#N)c2)c1NC(=O)NS(=N)(=O)c1nn(C(C)C)cc1Cl (centres unmarked) [Example 12, 4-Chloro-N-((2-(2-cyanopyridin-4-yl)-4-fluoro-6-isopropylphenyl)carbamoyl)-1-isopropyl-1H-pyrazole-3-sulfonimidamide]	< 100	< 500				
COc1cc(-c2ccc3c(c2NC(=O)NS(=N)(=O)c2ccn(C[C@@H](C)O)n2)CCC3)ccn1 (stereo partly drawn) [Example 17, 1-((R)-2-Hydroxypropyl)-N-((5-(2-methoxypyridin-4-yl)-2,3-dihydro-1H-inden-4-yl)carbamoyl)-1H-pyrazole-3-sulfonimidamide]	< 100	< 500				
CC(C)N1CC(S(=N)(=O)NC(=O)Nc2c3c(cc4c2CCC4)CCC3)C1 (centres unmarked) [Example 7, N-((1,2,3,5,6,7-Hexahydro-s-indacen-4-yl)carbamoyl)-1-isopropyl-azetidine-3-sulfonimidamide]	< 5000	< 5000				
COc1cc(-c2ccc3c(c2NC(=O)N[S@](=N)(=O)c2ccn(C(C)C)n2)CCC3)ccn1 [Example 28, (S)-1-Isopropyl-N-((5-(2-methoxypyridin-4-yl)-2,3-dihydro-1H-inden-4-yl)carbamoyl)-1H-pyrazole-3-sulfonimidamide]	< 1000	< 5000				
C[C@@H](O)Cn1ccc(S(=N)(=O)NC(=O)Nc2c3c(cc4c2CCC4)CCC3)n1 (stereo partly drawn) [Example 3, N-((1,2,3,5,6,7-Hexahydro-s-indacen-4-yl)carbamoyl)-1-((R)-2-hydroxypropyl)-1H-pyrazole-3-sulfonimidamide]	< 100	< 500	2250	7.4	2.7	0.75
5-(Azetidin-1-ylmethyl)-N-((4-fluoro-2,6-diisopropylphenyl) carbamoyl)-1-methyl-1H-pyrazole-3-sulfonimidamide [Example 23]	< 100	< 5000				
